Experiments:
human TLR7 = biological target: T1, human TLR7 (Homo sapiens, UniProt Q9NYK1); assay: HEK293-Blue-hTLR-7 cells assay; type: cell-based; details: HEK293-Blue-hTLR7 cells, R848 stimulation, 20 hrs, SEAP reporter; read-out: HEK/hTLR7 IC50
T1 construct: host or cells: HEK293 (HEK-Blue hTLR7)
T1 sequence (Q9NYK1 27-1049): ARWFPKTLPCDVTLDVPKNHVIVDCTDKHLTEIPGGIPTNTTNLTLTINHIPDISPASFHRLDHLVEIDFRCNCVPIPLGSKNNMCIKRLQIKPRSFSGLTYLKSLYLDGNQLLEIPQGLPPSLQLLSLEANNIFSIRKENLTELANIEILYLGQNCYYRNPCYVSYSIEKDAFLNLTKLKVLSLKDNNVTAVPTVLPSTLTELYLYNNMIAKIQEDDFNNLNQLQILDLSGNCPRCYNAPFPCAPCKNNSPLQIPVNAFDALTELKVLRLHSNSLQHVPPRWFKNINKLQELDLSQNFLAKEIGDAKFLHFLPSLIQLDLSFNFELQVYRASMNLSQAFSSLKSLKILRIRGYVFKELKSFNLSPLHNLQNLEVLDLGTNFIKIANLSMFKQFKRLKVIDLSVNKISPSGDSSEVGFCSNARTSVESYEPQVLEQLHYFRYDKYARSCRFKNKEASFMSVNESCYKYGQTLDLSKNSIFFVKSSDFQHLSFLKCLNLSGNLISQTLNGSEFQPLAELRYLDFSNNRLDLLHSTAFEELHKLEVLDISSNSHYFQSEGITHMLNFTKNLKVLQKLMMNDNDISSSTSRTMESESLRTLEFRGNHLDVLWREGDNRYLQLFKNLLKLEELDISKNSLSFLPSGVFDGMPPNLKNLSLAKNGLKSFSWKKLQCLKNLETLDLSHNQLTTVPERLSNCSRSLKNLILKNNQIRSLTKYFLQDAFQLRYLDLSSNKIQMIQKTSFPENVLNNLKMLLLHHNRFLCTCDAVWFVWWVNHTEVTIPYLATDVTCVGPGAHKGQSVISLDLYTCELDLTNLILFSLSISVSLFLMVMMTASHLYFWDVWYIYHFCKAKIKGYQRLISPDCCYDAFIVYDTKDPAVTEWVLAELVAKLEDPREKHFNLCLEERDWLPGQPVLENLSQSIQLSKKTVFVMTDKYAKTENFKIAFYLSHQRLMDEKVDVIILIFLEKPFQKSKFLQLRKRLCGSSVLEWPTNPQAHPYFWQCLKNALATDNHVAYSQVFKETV
Description: A stable HEK293-Blue-hTLR-7 cell line was purchased from InvivoGen (Cat. #: hkb-htlr7, San Diego, California, USA). These cells were originally designed for studying the stimulation of human TLR7 by monitoring the activation of NF-κB. A SEAP (secreted embryonic alkaline phosphatase) reporter gene was placed under the control of the IFN-β minimal promoter fused to five NF-κB and AP-1-binding sites. The SEAP was induced by activating NF-κB and AP-1 via stimulating HEK-Blue hTLR7 cells with TLR7 ligands. Therefore the reporter expression was declined by TLR7 antagonist under the stimulation of a ligand, such as R848 (Resiquimod), for incubation of 20 hrs. The cell culture supernatant SEAP reporter activity was determined using QUANTI-Blue™ kit (Cat. #: rep-qb1, Invivogen, San Diego, Ca, USA) at a wavelength of 640 nm, a detection medium that turns purple or blue in the presence of alkaline phosphatase.
HEK293-Blue-hTLR7 cells were incubated at a density of 250,000˜450,000 cells/mL in a volume of 170 μL in a 96-well plate in Dulbecco's Modified Eagle's medium (DMEM) containing 4.5 g/L glucose, 50 U/mL penicillin, […], […], 2 mM L-glutamine, 10% (v/v) heat-inactivated fetal bovine serum with addition of 20 μL test compound in a serial dilution in the presence of final DMSO at 1% and 10 μL of 20 uM R848 in above DMEM, perform incubation under 37° C. in a CO2 incubator for 20 hrs. Then 20 μL of the supernatant from each well was incubated with 180 μL Quanti-blue substrate solution at 37° C. for 2 hrs and the absorbance was read at 620˜655 nm using a spectrophotometer. The signaling pathway that TLR7 activation leads to downstream NF-κB activation has been widely accepted, and therefore similar reporter assay was modified for evaluating TLR7 antagonist.

CYP2C9 = biological target: T2, CYP2C9 (Homo sapiens, UniProt P11712); assay: CYP inhibition assay in human liver microsome, CYP2C9; type: in vitro ADME; details: percentage inhibition, substrate Diclofenac 5 μM
T2 construct: tissue BD-Gentest 452117; host or cells: human liver microsomes
T2 sequence (P11712 whole entry): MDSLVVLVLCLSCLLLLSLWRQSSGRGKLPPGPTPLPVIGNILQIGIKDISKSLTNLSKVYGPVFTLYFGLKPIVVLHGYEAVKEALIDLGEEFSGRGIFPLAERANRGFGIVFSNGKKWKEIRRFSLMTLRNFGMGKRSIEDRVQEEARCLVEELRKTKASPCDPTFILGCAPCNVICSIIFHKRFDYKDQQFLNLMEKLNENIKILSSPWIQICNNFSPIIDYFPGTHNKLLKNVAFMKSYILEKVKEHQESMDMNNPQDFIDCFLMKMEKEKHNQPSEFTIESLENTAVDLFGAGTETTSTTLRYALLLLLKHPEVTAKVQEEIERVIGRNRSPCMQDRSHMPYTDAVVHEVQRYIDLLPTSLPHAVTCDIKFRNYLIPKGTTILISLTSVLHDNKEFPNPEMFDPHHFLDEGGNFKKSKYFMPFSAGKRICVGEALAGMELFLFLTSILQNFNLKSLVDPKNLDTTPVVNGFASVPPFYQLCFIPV
Protocol: (§1) This is a high throughput screening assay used for assessment of reversible inhibition of CYP2C9, CYP2D6, and CYP3A4 activity of test compounds in human liver microsome (HLM) in early discovery stage.
(§2) 10 mM DMSO stock solutions of test compounds were diluted in DMSO to generate 2 mM intermediate stock solution. 250 nL of intermediate stock solution were transferred in duplicate into 3 separate 384 well microtitre plates (assay-ready plates). A mixture of HLM and each substrate was made up. 45 μL of HLM substrate mix was then transferred to each well of an assay ready plate and mixed. The negative (solvent) and positive controls (standard inhibitor for each CYP) were included in each assay ready plate. The assay ready plate was warmed to 37° C. in an incubator over 10 minutes. 5 μL pre-warmed NADPH regenerating system was added to each incubation well to start the reaction. Final incubation volume was 50 μL. The assay plate then was placed back in the 37° C. incubator. After incubation (10 minutes for CYP2D6) for 5 minutes, incubates were quenched by addition of 50 μL 100% acetonitrile containing internal standards (400 ng/mL 13C6-4′-OH-Diclofenac, 20 ng/mL D3-Dextrorphan and 20 ng/mL D4-1′OH-Midazolam). The supernatants were collected for RapidFire/MS/MS analysis.
(§3) RapidFire online solid phase extraction/sample injection system (Agilent) coupled with API4000 triple quadrupole mass spectrometer (AB Sciex) were used for sample analysis. The mobile phase composed of acetonitrile and water supplemented with 0.1% formic acid. A C4 solid phase extraction cartridge is used for sample separation. MS detection is achieved in positive ion MRM mode.
(§4) Peak areas for substrate, metabolite and internal standard are determined using the RapidFire integrator software (version 3.6.12009.12296). Peak area ratios (PAR) of metabolite and internal standard (stable-labelled metabolite) are then calculated. The measurement window for each experiment is then defined:
(§5) PAR (0% activity)=average PAR for all incubations containing concentrated inhibitor;
(§6) Par (100% activity)=average PAR for all incubations containing no inhibitor (DMSO controls);
(§7) % Activity (test inhibitor)=[PAR(test inhibitor)−PAR(0% activity)/PAR(100% activity)−PAR(0% activity)];
(§8) % Inhibition (test inhibitor)=100−% Activity (test inhibitor).

CYP2D6 = biological target: T3, CYP2D6 (Homo sapiens, UniProt P10635); assay: CYP inhibition assay in human liver microsome, CYP2D6; type: in vitro ADME; details: percentage inhibition, substrate Dextromethorphan 5 μM
T3 construct: tissue BD-Gentest 452117; host or cells: human liver microsomes
T3 sequence (P10635 whole entry): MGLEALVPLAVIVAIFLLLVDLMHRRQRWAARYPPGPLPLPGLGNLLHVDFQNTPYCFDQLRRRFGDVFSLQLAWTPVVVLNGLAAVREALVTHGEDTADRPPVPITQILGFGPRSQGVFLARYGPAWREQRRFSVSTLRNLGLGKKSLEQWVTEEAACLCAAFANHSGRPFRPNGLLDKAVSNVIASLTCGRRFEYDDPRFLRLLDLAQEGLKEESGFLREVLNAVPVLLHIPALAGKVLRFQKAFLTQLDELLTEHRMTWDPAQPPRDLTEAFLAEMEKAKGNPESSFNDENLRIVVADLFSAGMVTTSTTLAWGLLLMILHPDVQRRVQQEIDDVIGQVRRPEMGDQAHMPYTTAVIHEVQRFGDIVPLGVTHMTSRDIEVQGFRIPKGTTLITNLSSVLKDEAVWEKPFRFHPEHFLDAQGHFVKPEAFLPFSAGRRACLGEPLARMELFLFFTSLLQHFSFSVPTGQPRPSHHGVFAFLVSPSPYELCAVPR
Protocol: as §1, §2, §3, §4, §5, §6, §7, §8

CYP3A4 = biological target: T4, CYP3A4 (Homo sapiens, UniProt P08684); assay: CYP inhibition assay in human liver microsome, CYP3A4; type: in vitro ADME; details: percentage inhibition, substrate Midazolam 5 μM
T4 construct: tissue BD-Gentest 452117; host or cells: human liver microsomes
T4 sequence (P08684 whole entry): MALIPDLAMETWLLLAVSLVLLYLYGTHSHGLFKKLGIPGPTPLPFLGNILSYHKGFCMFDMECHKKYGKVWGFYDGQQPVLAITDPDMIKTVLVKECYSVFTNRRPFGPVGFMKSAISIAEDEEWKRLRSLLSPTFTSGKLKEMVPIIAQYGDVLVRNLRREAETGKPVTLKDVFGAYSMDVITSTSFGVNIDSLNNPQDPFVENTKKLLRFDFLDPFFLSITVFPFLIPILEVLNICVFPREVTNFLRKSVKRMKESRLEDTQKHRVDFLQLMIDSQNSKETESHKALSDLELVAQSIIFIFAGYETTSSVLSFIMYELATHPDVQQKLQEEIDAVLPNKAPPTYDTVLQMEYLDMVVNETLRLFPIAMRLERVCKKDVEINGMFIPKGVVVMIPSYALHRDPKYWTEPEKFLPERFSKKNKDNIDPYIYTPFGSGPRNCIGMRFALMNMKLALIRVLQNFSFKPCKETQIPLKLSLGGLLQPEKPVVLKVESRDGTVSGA
Protocol: as §1, §2, §3, §4, §5, §6, §7, §8

C[C@@H]1CN(c2ccc(C#N)c3ncccc23)C[C@@H]2C[C@H](c3ccc(N4CCNCC4)nc3)CCN21 (stereo in doubt) [Example 2, 5-[(4R,8R)-4-methyl-8-(6-piperazin-1-yl-3-pyridyl)-1,3,4,6,7,8,9,9a-octahydropyrido[1,2-a]pyrazin-2-yl]quinoline-8-carbonitrile]
IC50 (human TLR7): 4 nM | CYP (%) 2C9 (CYP2C9): 6% | CYP (%) 2D6 (CYP2D6): −5.5% | CYP (%) 3A4 (CYP3A4): 38%

— patent publication US12421229B2, “Hydropyrido[1,2-α]pyrazine compounds for the treatment of autoimmune disease” (Hoffmann-La Roche Inc., priority 2019, dated 2025)
